Reference: US9499519B2, “Fused pyrimidine compounds and use thereof” (Medivation Technologies, Inc., priority 2012, dated 2016)

Molecular target: T1, c-Mer (Homo sapiens, UniProt Q12866)
T1 sequence (Q12866 21-999): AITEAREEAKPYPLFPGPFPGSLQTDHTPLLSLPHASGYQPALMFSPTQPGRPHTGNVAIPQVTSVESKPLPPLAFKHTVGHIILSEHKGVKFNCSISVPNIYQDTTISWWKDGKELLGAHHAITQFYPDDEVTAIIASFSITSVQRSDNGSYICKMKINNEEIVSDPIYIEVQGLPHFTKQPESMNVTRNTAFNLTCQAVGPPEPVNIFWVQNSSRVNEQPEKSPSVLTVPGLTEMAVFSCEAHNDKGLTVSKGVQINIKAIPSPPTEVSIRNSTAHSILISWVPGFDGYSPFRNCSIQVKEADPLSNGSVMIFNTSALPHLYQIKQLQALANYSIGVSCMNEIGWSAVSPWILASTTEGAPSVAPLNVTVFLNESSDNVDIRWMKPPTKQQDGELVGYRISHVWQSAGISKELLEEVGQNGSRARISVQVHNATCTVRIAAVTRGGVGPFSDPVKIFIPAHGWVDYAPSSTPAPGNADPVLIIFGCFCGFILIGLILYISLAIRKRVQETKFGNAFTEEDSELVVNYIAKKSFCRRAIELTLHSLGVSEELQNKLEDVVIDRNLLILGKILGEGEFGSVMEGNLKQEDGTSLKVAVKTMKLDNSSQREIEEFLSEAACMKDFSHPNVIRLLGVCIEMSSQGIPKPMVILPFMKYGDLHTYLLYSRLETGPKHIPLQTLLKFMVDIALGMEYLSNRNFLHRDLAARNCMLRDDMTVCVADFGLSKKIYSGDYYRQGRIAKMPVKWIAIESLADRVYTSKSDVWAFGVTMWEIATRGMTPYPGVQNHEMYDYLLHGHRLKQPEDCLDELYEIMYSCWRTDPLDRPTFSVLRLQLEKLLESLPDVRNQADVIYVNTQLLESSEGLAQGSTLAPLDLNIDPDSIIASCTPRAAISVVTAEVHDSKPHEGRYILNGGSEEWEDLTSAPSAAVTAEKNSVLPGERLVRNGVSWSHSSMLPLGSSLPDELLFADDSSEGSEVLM
Test: HotSpot kinase assay: c-Mer
Type: biochemical
Conditions: 100 nM compound, read-out: % Enzyme Inhibition @ 100 nM c-MER
Description: Kinase assays were performed using additional compounds against a panel of 4 kinases: AXL; c-Met; c-Mer; and Trk C. Each compound was tested at a concentration of […] in single duplicate mode against the 4 kinases. Compounds were prepared as 10 mM stock solutions in DMSO prior to use in the assay. […] IC50 values and curve fits were obtained using Prism (GraphPad Software).
The screening was performed using the “HotSpot” assay platform. The assay measures the conversion of a peptide substrate to ^33P-labelled phosphorylated product. Briefly, specific kinase/substrate pairs along with required cofactors were prepared in reaction buffer. Specifically, the substrate was prepared in reaction buffer (20 mM Hepes, pH 7.5; 10 mM MgCl2; 1 mM EGTA; 0.02% Brij35; 0.02 mg/mL BSA; 0.1 mM Na3VO4; 2 mM DTT; 1% DMSO), followed by delivery of any required cofactor to the resulting substrate solution. The corresponding kinase was delivered into the substrate solution and the reaction mixture was mixed gently. Compound was delivered into the reaction mixture, followed 15-20 minutes later by addition of a mixture of ATP (Sigma, St. Louis Mo.) and ^33P ATP (specific activity 0.01 μCi/μL final; Perkin Elmer, Waltham, Mass.) to a final concentration of 10 μM-30 μM to initiate the reaction. […] The percent of enzyme inhibition was calculated based on the percent of remaining kinase activity.

- inhibition at 0.1 µM: < 39%
SMILES: CC(C)c1cc(Nc2nc(N3CCCC3C(=O)N(C)C)nc3c2CCC3)n[nH]1 (single isomer, unassigned) [Compound 20b, 1-(4-(5-isopropyl-1H-pyrazol-3-ylamino)-6,7-dihydro-5H-cyclopenta[d]pyrimidin-2-yl)-N,N-dimethylpyrrolidine-2-carboxamide]
